Earlier results in patent US20260272891A1, “TREATMENT OF AUTOIMMUNE DISEASES AND CANCER WITH PROTEASE INHIBITORS” (Lundquist Institute for Biomedical Innovation at …, priority 2023, published 2026).

System: all variants of concern, including Omicron and its variants
Conditions: cited from earlier work

CC(C)(C)[C@H](NC(=O)C(F)(F)F)C(=O)N1C[C@H]2[C@@H]([C@H]1C(=O)N[C@H](C#N)C[C@@H]1CCNC1=O)C2(C)C [NMV, nirmatrelvir]
antiviral activity: antiviral activity against all variants of concern
